Data on three molecules can be found in US20100144728A1, “Oxazolidinone For The Treatment And Prophylaxis Of Pulmonary Hypertension” (Bayer Schering Pharma AG, priority 2007, published 2010).

In the series the test system is monocrotaline-induced pulmonary hypertension. Nature of the series: Monocrotaline-induced pulmonary hypertension in rats (haemodynamics, right heart hypertrophy, bleeding). It counts as in vivo, rat. The conditions noted are these: for bleeding complications in treated animals: bleeding with fatal outcome or need to euthanize; for effect on haemodynamics in the right heart and pulmonary circulation and right heart hypertrophy (in words): comparison of Example 1, enoxaparin and warfarin. The source says: The monocrotaline-induced pulmonary hypertension in rats is a widely used animal model of pulmonary arterial hypertension. The pyrrolizidine alkaloid monocrotaline is metabolized after subcutaneous injection to toxic monocrotaline pyrrole in the liver and leads within a few days to endothelial damage and coagulation activation and thrombosis formation in the pulmonary circulation, followed by remodelling of the small pulmonary arteries (media hypertrophy, de-novo muscularization). A single subcutaneous injection is sufficient to induce pronounced pulmonary hypertension in rats within 4 weeks.
Male Sprague-Dawley rats are used for the model. On day 0, the animals receive a subcutaneous injection of monocrotaline 60 mg/kg. The treatment of the animals starts before the monocrotaline injection and extends over a period of at least 28 days. At the end of the study, the animals undergo haemodynamic investigations, and the arterial and central venous oxygen saturation is measured. The rats are initially anaesthetized with pentobarbital 60 mg/kg for the haemodynamic measurement. The animals are then tracheotomized and artificially ventilated (frequency: 60 breaths/min; inspiration to expiration ratio: 50:50; positive end-expiratory pressure: 1 cm H2O; tidal volume: 10 ml/kg body weight; FIO2: 0.5). The anaesthesia is maintained by isoflurane inhalation anaesthesia. The systemic blood pressure is measured in the left carotid artery by means of a Millar microtip catheter. A polyethylene catheter is advanced through the right jugular vein into the right ventricle for determining the right ventricular pressure. The cardiac output is measured by thermodilution. Following the haemodynamics, the heart is removed and the ratio of right to left ventricle including septum is determined.

On to `O=C(NC[C@H]1CN(c2ccc(N3CCOCC3=O)cc2)C(=O)O1)c1ccc(Cl)s1` [Example 1, 5-chloro-N-({(5S)-2-oxo-3-[4-(3-oxomorpholin-4-yl)phenyl]-1,3-oxazolidin-5-yl}methyl)thiophene-2-carboxamide], for which the “bleeding complications in treated animals” value (“bleeding complications” below) was “no bleedings”; the “effect on haemodynamics in the right heart and pulmonary circulation and right heart hypertrophy (in words)” value (“effect on haemodynamics” below) is recorded as “better activity”. Besides, under “Table 1, 3-9 mg/kg/d”, the RVEDP was 4 mmHg and the dP/dtmax is listed as 2715 mmHg/s. The same molecule showed an RVPmax (Table 1, 3-9 mg/kg/d, at least 28 days treatment) of 55 mmHg. This molecule also yielded a CO (Table 1, 3-9 mg/kg/d, cardiac output) of 117 mL/min. Besides, the “RV/(LV + S)” value (Table 1, 3-9 mg/kg/d, weight of right heart relative to left heart including septum) stood at 0.41. Besides, under “Table 1, 10-30 mg/kg/d”, the CO is 117 mL/min, the “RV/(LV + S)” value is reported as 0.33, the RVEDP is recorded as 3 mmHg and the RVPmax amounted to 44 mmHg. This molecule also returned a dP/dtmax (Table 1, 10-30 mg/kg/d) of 2244 mmHg/s. Besides, for the setting “Table 2, 10-30 mg/kg/d”, the CO stood at 125 mL/min, the “RV/(LV + S)” value was found to be 0.38, the RVEDP stood at 3 mmHg and the RVPmax amounted to 57 mmHg. Moreover, the dP/dtmax (Table 2, 10-30 mg/kg/d) turned out to be 3300 mmHg/s.

Regarding `CC(=O)CC(c1ccccc1)c1c(O)c2ccccc2oc1=O` (stereo not shown) [Warfarin, warfarin, reference compound], the “bleeding complications” value is on record as “half of the animals”; the “effect on haemodynamics” value is reported as “significantly smaller effect”. Besides, under “Table 2, 0.1-0.2 mg/kg/d”, the CO stood at 100 mL/min, the “RV/(LV + S)” value was 0.46, the RVEDP was determined as 4 mmHg and the RVPmax is reported as 64 mmHg. The molecule further returned a dP/dtmax (Table 2, 0.1-0.2 mg/kg/d) of 4535 mmHg/s.

For the molecule enoxaparin [reference compound], the “bleeding complications” value was “half of the animals”; the “effect on haemodynamics” value is recorded as “no effect”. For the setting “Table 2, 20 mg/kg/d”, the CO is 77 mL/min, the “RV/(LV + S)” value turned out to be 0.56, the RVEDP stood at 6 mmHg and the RVPmax worked out at 85 mmHg. Under “Table 2, 20 mg/kg/d”, the dP/dtmax stood at 4644 mmHg/s.
